Values of other authors, collected in US20060020045A1, “Methods and compositions for treating inflammatory disorders of the gastrointestinal tract” (priority 2004, published 2006).

System: dimethylhydrazine-induced colon carcinogenesis
Conditions: effect only when present during carcinogen administration, not if given 17 weeks following the carcinogen

CC1=C(CC(=O)O)c2cc(F)ccc2/C1=C\c1ccc([S+](C)[O-])cc1 (stereo not shown) [sulindac]
tumor incidence: reduce tumor incidence only when present during carcinogen administration
